Measured values: patent publication US11820833B2, “Peptides that inhibit binding of EPCR to its ligand to treat inflammation” (Tel HaShomer Medical Research Infrastructure and Services …, priority 2016, dated 2023)
“Also recorded” adds a separate entry of the source. Non-standard residues stand in square brackets, D forms with d. Residues, ends and D or L forms follow the SMILES beside them. *: point of attachment. Gla = N[C@@H](CC(C(=O)O)C(=O)O)C(=O)O; Tos = Cc1ccc(S(=O)(=O)*)cc1

Tests used:
[1] = test system: commercial human pool plasma; assay: Coagulation tests (PT, APTT, TT, anti Xa, aPC-resistance) in human pool plasma
Experimental: All coagulation tests as PT (Prothrombin Time), APTT (activated partial thromboplastin time), TT (Thrombin Time), anti Xa, aPC-resistance were carried out in collaboration with the routine coagulation lab in Sheba Medical Center and conducted on a commercial human pool plasma samples.
Coagulation tests were conducted at the Sheba Medical Center (as described in details in the ‘general materials and experimental procedures’ section above) and a commercial pool human plasma was used. PEP6 was applied in various concentrations for injection in vivo and for evaluating the safety and the width of the therapeutic window for treatment.

[2] = test system: Long Term Potentiation (LTP), hippocampal slices; assay: In vitro electrophysiology, Long Term Potentiation in hippocampal slices; set-up: species or system mice; details: peptides at 10 μM, HFS 100 Hz 1 second
Experimental: The efficacy of the peptides was tested using in vitro electrophysiology. Here the present inventors tested whether these peptides have similar effects as aPC in enhancing Long Term Potentiation. Briefly, mice (10-12 weeks of age) were rapidly decapitated, the hippocampus was removed, and 400 μm slices were prepared using a vibroslicer. Slices were incubated for 1.5 hours in a humidified, carbogenated (5% CO2 and 95% O2) gas atmosphere at 33±1° C. and were perfused with ACSF [containing (in mm) 124 NaCl, 2 KCl, 26 NaHCO3, 1.24 KH2PO4, 2.5 CaCl2, 2 MgSO4, and 10 glucose, pH 7.4] in a standard interface chamber. Recordings were made with a glass pipette containing 0.75 m NaCl (4 MΩ) placed in the stratum radiatum CA1.
Stimulation was evoked using a Master 8 pulse stimulator (A.M.P.I., Jerusalem, Israel) and was delivered through a bipolar nichrome electrode placed at a side of the recording electrode. LTP was induced by high-frequency stimulation (HFS) consisting of 100 pulses at twice the test intensity, delivered at a frequency of 100 Hz (100 Hz, 1 second). Before applying the tetanic stimulation, baseline values were recorded at a frequency of 0.033 Hz. Responses were digitized at 5 kHz and stored on a computer. Off-line analysis and data acquisition were performed using the LTP Program (Anderson and Collingridge, 2001). Peptides were tested at a concentration of 10 μM.

Row | Compound | Effect in APTT (activated partial thromboplastin time) test [1] | Effect in PT (Prothrombin Time) test [1] | Effect on coagulation tests (all conducted tests) ([1]; any concentration tested) | Effect on Long Term Potentiation (LTP) [2]
1 | Cc1ccc(S(=O)(=O)N[C@@H](CC(C(=O)O)C(=O)O)C(=O)N[C@@H](CCC(=O)O)C(=O)N[C@@H](C)C(=O)N[C@@H](CCCNC(=N)N)C(N)=O)cc1 [Pep6, Tos-{Gla}-EAR-NH2] (Tos-[Gla]EAR-NH2) | small but statistically significant effect | small but statistically significant effect | either no effect or clinical-irrelevant effect; also recorded: did not affect | 
2 | Tos-{Gla}-EAK-NH2 (Tos-[Gla]EAK-NH2; SMILES Cc1ccc(S(=O)(=O)N[C@@H](CC(C(=O)O)C(=O)O)C(=O)N[C@@H](CCC(=O)O)C(=O)N[C@@H](C)C(=O)N[C@@H](CCCCN)C(N)=O)cc1) [Pep5, N-terminal Tosyl, C-terminal amide, γ-carboxylated Glu] |  |  |  | enhanced
3 | Tos-{Gla}-EAK-{Gla}-IF-NH2 (Tos-[Gla]EAK[Gla]IF-NH2; SMILES CC[C@H](C)[C@H](NC(=O)[C@H](CC(C(=O)O)C(=O)O)NC(=O)[C@H](CCCCN)NC(=O)[C@H](C)NC(=O)[C@H](CCC(=O)O)NC(=O)[C@H](CC(C(=O)O)C(=O)O)NS(=O)(=O)c1ccc(C)cc1)C(=O)N[C@@H](Cc1ccccc1)C(N)=O) [Pep7, N-terminal Tosyl, C-terminal amide, γ-carboxylated Glu] |  |  |  | enhanced
4 | Tos-{Gla}-EAR-{Gla}-IF-NH2 (Tos-[Gla]EAR[Gla]IF-NH2; SMILES CC[C@H](C)[C@H](NC(=O)[C@H](CC(C(=O)O)C(=O)O)NC(=O)[C@H](CCCNC(=N)N)NC(=O)[C@H](C)NC(=O)[C@H](CCC(=O)O)NC(=O)[C@H](CC(C(=O)O)C(=O)O)NS(=O)(=O)c1ccc(C)cc1)C(=O)N[C@@H](Cc1ccccc1)C(N)=O) [Pep8, N-terminal Tosyl, C-terminal amide, γ-carboxylated Glu] |  |  |  | enhanced
